According to publication PMC12057046, “Elucidation of short linear motif-based interactions of the MIT and rhodanese domains of the ubiquitin-specific protease 8” (Biology Direct, 2025):

What was measured:
[1] = biological target: T1, USP8 Rhod domain (Homo sapiens, UniProt P40818); assay: Competitive fluorescence polarization (displacement of FITC-TET3_1705 − 1720); type: binding; details: FP displacement, 1.5 µM protein, 10 nM FITC-labeled peptide, 50 mM sodium phosphate pH 7.4, 1 mM DTT; mean ± SD, N = 3 technical triplicates (Fig. 3 legend)
T1 construct: USP8 Rhod (174–317) (UniProt: P40818); GST (cleaved yes); made in house; host or cells: Escherichia coli BL21-Gold (DE3)
T1 sequence (P40818 174-317): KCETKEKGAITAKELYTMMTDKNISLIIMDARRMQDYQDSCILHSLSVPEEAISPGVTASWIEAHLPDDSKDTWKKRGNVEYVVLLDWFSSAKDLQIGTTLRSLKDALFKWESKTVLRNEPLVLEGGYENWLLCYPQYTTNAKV
Description: We next evaluated the peptide binding of the Rhod domain by ProP-PD selections. […] (February 2025).
The peptides were obtained from GeneCust (France) with > 95% purity. Measurement of the direct binding with a constant concentration of FITC-labeled peptides was performed by increasing concentration of the protein. The KD value from the direct binding experiment was obtained by fitting against a quadratic equation (Eq. 4) where “pept” indicates the fixed probe peptide concentrations, X indicates the protein concentration, the constant A is the signal amplitude divided by probe peptide concentration, and B is the plateau value. Eq. 4: [drawing 9]
Displacement experiments were carried out by increasing concentration of the unlabeled peptides. The data were fitted with a sigmoidal dose-response equation. The results were analysed with GraphPad Prism version 9.2.0.

[2] = system: USP8 MIT domain; details: 187-ELSQRLARLR-196; ref [17], [38]; cited from earlier work
Description: To further elucidate the peptide binding determinants of the interactions with USP8 MIT domain we performed a deep mutational scanning (DMS) analysis of two model peptides: one peptide from melanophilin (MLPH481 − 496: […]) which served as a representative of the MIM1-like motif and the EFCAB12 peptide (EFCAB12_1 − 16: […]), which shares some sequence similarity with the DBP116 − 131 peptide. We designed a library of peptides in which each position of the two parental peptides were mutated to all other amino acids (except cysteine) following a classic saturation mutag ...

[3] = system: USP8 MIT domain; assay: SPOT array alanine scanning, USP8 MIT domain; type: binding, human; details: cellulose-bound peptides, GST-tagged MIT 100 µM, 5% skim milk TBST, overnight 4 °C, anti-GST HRP chemiluminescence; normalized to wild type
Description: SPOT array alanine scanning of peptides was designed, and cellulose-bound peptides were synthesized using Fluorenylmethyloxycarbonyl (Fmoc) solid phase synthesis with a MultiPep synthesizer (INTAVIS Peptide Services, Tübingen, Germany). The membranes of predicted peptides were purchased by JPT Peptide Technologies (Berlin, Germany). The membranes were incubated with blocking buffer containing 5% skim milk in TBST (50 mM Tris, 150 mM NaCl pH 7.5, 0.05% Tween-20) for two hours at room temperature. The blocked membranes were incubated with GST-tagged proteins (100 µM for MIT domain and 150 µM for the Rhodanese domain) in blocking buffer overnight at 4 °C. After rinsed with TBST the membranes were incubated with HRP-conjugated anti-GST antibody (Cytiva, RPN1236; 1:3000 dilution) in blocking buffer for 1 h at 4 °C and subsequently rinsed with TBST to remove any excess antibody. The ECL reagent (Clarity Max Western ECL substrate, 1705062, BioRad) was used for chemiluminescence read-out with the ChemiDoc Imaging system (BioRad). The images were analysed with Fiji (ImageJ2 version 2.9.0). SLiMSearch4 was used to design the peptide arrays with known interactors predicted to contain the motifs. The background signal intensity was subtracted, and the corrected signal intensities were normalized to the positive control and presented as percentage.

[4] = system: USP8 MIT domain; assay: SPOT array of predicted peptides from known interactors, USP8 MIT domain; type: binding, human; details: for Percentage (%) normalized to highest intensity and corrected for background: SPOT array, GST-tagged MIT 100 µM, overnight 4 °C, chemiluminescence, highest intensity = DNAJB6; for Percentage (%): Supplementary Fig. 4B, normalized to the highest intensity and corrected for background
Description: To further assess the SLiM-based interactions of the USP8 MIT domain, we designed a peptide array tiling 24 potential binding sites in previously reported USP8 interactors. We used SLiMSearch to search for peptides that contain shorter or longer matches to the motif (Supplementary Table S4A). […] The DNAJB6_118 - 130 peptide was predicted as a binder based on a partial DFx{2,3}R motif. The DNAJB6-USP8 interaction is supported by previous GST-pulldown experiments and colocalization of the two proteins in male mouse germ cells, and the interaction is thought to be of importance to the protein quality control to yield functional spermatozoa. In the case of the CDH1_863 - 877 peptide it was predicted as USP8 MIT ligand based on the presence of an RFxxL motif. The previous support of the CDH1-USP8 interaction is based on proximity labelling mass spectrometry, and our results thus provide evidence for a binary interaction between the two proteins and define a binding site. To confirm that the motifs used to predict the interactions were of importance for binding we designed an alanine scanning peptide SPOT array analysis of the DNAJB6_118 - 130 and the CDH1_863 - 877 peptides. […] In summary, we find that the USP8 MIT domain binds to a MIM1-like motif that can be expressed by [[…]], as well as degenerate variants thereof. […] The membranes of predicted peptides were purchased by JPT Peptide Technologies (Berlin, Germany). The membranes were incubated with blocking buffer containing 5% skim milk in TBST (50 mM Tris, 150 mM NaCl pH 7.5, 0.05% Tween-20) for two hours at room temperature. The blocked membranes were incubated with GST-tagged proteins (100 μM for MIT domain and 150 μM for the Rhodanese domain) in blocking buffer overnight at 4 °C. After rinsed with TBST the membranes were incubated with HRP-conjugated anti-GST antibody (Cytiva, RPN1236; 1:3000 dilution) in blocking buffer for 1 h at 4 °C and subsequently rinsed with TBST to remove any excess antibody. The ECL reagent (Clarity Max Western ECL substrate, 1705062, BioRad) was used for chemiluminescence read-out with the ChemiDoc Imaging system (BioRad). The images were analysed with Fiji (ImageJ2 version 2.9.0). […] used to design the peptide arrays with known interactors predicted to contain the motifs. The background signal intensity was subtracted, and the corrected signal intensities were normalized to the positive control and presented as percentage.

[5] = system: USP8 MIT domain; assay: Proteomic peptide-phage display (ProP-PD) selection against USP8 MIT domain; type: binding, human; design: Confidence: scale not given here
In short: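 GST-tagged USP8 MIT domain, immobilized on plates, used as bait for four rounds of phage selection with a human disorderome peptide library, after pre-clearing on GST at 4 °C. Binding 2 h at 4 °C, at least three replicates. Enriched peptides identified by next-generation sequencing.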

CSCC[C@H](NC(=O)CN)C(=O)N[C@@H](CCC(=O)O)C(=O)N[C@@H](CCCNC(=N)N)C(=O)N[C@H](C(=O)N[C@@H](CC(C)C)C(=O)NCC(=O)NCC(=O)N[C@@H](CC(C)C)C(=O)N[C@@H](CO)C(=O)N[C@@H](CO)C(=O)N1CCC[C@H]1C(=O)N[C@@H](CC(C)C)C(=O)N[C@@H](CCCNC(=N)N)C(=O)N[C@@H](CC(C)C)C(=O)N[C@@H](CC(C)C)C(=O)O)C(C)C [KIAA1614_568 − 583]
Kd [1]: 10 ± 2 µM

CSCC[C@H](NC(=O)[C@H](CCCCN)NC(=O)[C@H](C)NC(=O)[C@H](CCC(=O)O)NC(=O)[C@H](Cc1c[nH]c2ccccc12)NC(=O)[C@H](CC(C)C)NC(=O)[C@H](C)NC(=O)[C@H](CC(C)C)NC(=O)CN)C(=O)N[C@@H](CCCCN)C(=O)N[C@@H](CCC(N)=O)C(=O)N[C@@H](CC(C)C)C(=O)N[C@@H](C)C(=O)N[C@@H](CCC(=O)O)C(=O)N[C@@H](CCCNC(=N)N)C(=O)N[C@@H](C)C(=O)O [TET3_1705 − 1720]
Kd [1]: 33 ± 9 µM

ELSQRLARLR [CHMP1B]
binding to USP8 MIT [2]: USP8 MIT binding peptides

NEWGNRFKKLADMYG [CDH1_863 − 877, Cadherin-1 peptide]
residues important for binding by SPOT array alanine scanning [3]: corroborated the RFxxL motif and revealed a longer stretch is contributing to binding, with an upstream tryptophan being critical for the interaction
Percentage (%) normalized to highest intensity and corrected for background [4]: 71%
Percentage (%) [4]: 71%

PFEDFFGNRRGPR [DNAJB6_118 − 130, DnaJ homolog subfamily B member 6 peptide]
residues important for binding by SPOT array alanine scanning [3]: confirmed the importance of the aspartic acid and the phenylalanine of the predicted motif (DFx{2,3}R) and showed that the mutations of the flanking residues also reduced binding
Percentage (%) normalized to highest intensity and corrected for background [4]: 100%
Percentage (%) [4]: 100%

YVDLDAFLLEHGLPPS [DBP116 − 131]
residues important for binding by SPOT array alanine scanning [3]: revealed the importance of an extended DxDxFxxEHG stretch
Percentage (%) normalized to highest intensity and corrected for background [4]: 67%
Percentage (%) [4]: 67%
NGS counts (%) ([5]; ProP-PD, human disorderome library, GST-tagged MIT bait, four rounds of selection, percent of NGS counts associated with each peptide, Fig. 1B): 16.16%
max_counts ([5]; Total NGS counts): 858
Confidence ([5]; calculated based on four metrics: overlapping peptides, replicated peptides, motif match, peptide counts): 2
Counts ([5]; fraction of NGS counts for a selection): 0.06958
Promiscuity ([5]; number of baits selections where the peptide has been observed, calculated on the domain level): 3
Replicates ([5]; number of screens against the bait protein in which the peptide has been found): 3
Specificity ([5]; proportion for the current bait of the total NGS read counts of the peptide for all baits screened with this library): 0.9006
